From ChEMBL document CHEMBL3352084, “Bioactive compounds from the insect Aspongopus chinensis” (Bioorg Med Chem Lett, 2014) come the findings set out here.

Series [1] addresses Prostaglandin G/H synthase 2 (Homo sapiens, UniProt P35354). The series can be described thus: Inhibition of human recombinant COX2 pre-incubated for 15 mins before arachidonic acid addition by fluorescence micro plate reader method.
In series [2] the test system is Rattus norvegicus. Description: Inhibition of high glucose-induced fibronectin production in rat renal mesangial cells dosed for 1 hr before 30 mM D-glucose stimulation for 24 hrs by ELISA. The series is classed as functional.
The subject of series [3] is Rattus norvegicus. Description: Inhibition of high glucose-induced collagen 4 production in rat renal mesangial cells dosed for 1 hr before 30 mM D-glucose stimulation for 24 hrs by ELISA. It is filed as functional. Background: In an ELISA, binding on a coated surface is turned into a signal by an enzyme label.
Series [4] deals with Rattus norvegicus. Description: Inhibition of high glucose-induced IL6 production in rat renal mesangial cells dosed for 1 hr before 30 mM D-glucose stimulation for 24 hrs by ELISA. The series is classed as functional.
Series [5] can be described thus: Retention time of the compound by […] method. The series is classed as physicochemical.

Calls of active or inactive are those of the source. No cut-off for these calls is given here.

Sequence of Prostaglandin G/H synthase 2 (P35354 whole entry, looked up): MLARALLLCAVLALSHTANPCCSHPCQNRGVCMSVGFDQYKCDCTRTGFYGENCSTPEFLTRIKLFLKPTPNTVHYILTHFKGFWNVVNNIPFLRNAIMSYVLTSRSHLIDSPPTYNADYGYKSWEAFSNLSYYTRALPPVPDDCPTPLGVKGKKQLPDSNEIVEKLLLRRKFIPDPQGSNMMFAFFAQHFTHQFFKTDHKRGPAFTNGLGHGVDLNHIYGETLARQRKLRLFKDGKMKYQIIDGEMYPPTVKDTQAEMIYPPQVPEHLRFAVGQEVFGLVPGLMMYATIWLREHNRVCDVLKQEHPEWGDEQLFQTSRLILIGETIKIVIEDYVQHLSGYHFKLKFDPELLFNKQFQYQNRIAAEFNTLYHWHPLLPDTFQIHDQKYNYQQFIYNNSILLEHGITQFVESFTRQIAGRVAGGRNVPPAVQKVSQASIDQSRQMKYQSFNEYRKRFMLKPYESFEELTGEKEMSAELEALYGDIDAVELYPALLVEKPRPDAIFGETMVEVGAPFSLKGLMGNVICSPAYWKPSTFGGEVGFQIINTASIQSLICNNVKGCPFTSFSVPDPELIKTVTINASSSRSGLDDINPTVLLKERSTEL

In the case of `CC(=O)/C=C/c1ccc(O)c(O)c1`, the IC50 – broadly, the concentration at which inhibition is half-maximal – in series [1] is 22.2 µM.
As for `CCc1nc(C)ccc1O`, the inhibition entry in the series with Rattus norvegicus [2], in the series on Rattus norvegicus [3] and in the series with Rattus norvegicus [4] was “Active” in each case.
In the case of `CC(C)C[C@@H]1NC(=O)[C@H](Cc2c[nH]c3ccccc23)NC1=O`, the inhibition entry in the series with Rattus norvegicus [2], with Rattus norvegicus [3] and in the series with Rattus norvegicus [4] was “Active” in each case.
The molecule `C/C(=C/CCC(C)c1cc(O[C@@H]2O[C@H](CO)[C@@H](O)[C@H](O)[C@H]2O)c(O)cc1C)C(=O)O` (some centres not stated) displayed a Retention_time in series [5] of 25.461 min.
Take `CC(=O)N/C=C\c1ccc2c(c1)OC(c1ccc(O)c(O)c1)C(NC(C)=O)O2` (configuration not stated): the inhibition result in the series with Rattus norvegicus [2], in the series with Rattus norvegicus [3] and in the series on Rattus norvegicus [4] was “Active” throughout. Moreover, in series [1], the half-inhibitory concentration (IC50) worked out at 6.5 µM.
`CC(=O)NC[C@@H](OC[C@H](O)CO)c1ccc(O)c(O)c1`: the IC50 in series [1] turned out to be 117 µM.
Still for that read-out and setting: the value for `CC(=O)NCCc1ccc(O)c(O)c1` was 18.9 µM.
Regarding `CC(=O)N/C=C\c1ccc2c(c1)OC(NC(C)=O)C(c1ccc(O)c(O)c1)O2` (configuration not stated), the inhibition result with Rattus norvegicus [2], in the series on Rattus norvegicus [3] and in the series on Rattus norvegicus [4] was “Active” throughout.
